Positions of bridges follow the written chain, without caps; N, C: chain ends. Non-standard residues stand in square brackets, D forms with d. Residues, ends and D or L forms follow the SMILES beside them. *: point of attachment. X1 = CC[C@H](C)CCCCC(=O)*; Dab = NCC[C@H](N)C(=O)O
Assays:
[1] = tested on: E. coli MRSN 388634; assay: Mouse septicemia model, acute; format: in vivo, BALB/c mice
Procedure: FIG 3 PPMOs rescue colistin activity in a mouse model of acute septicemia. Female BALB/c mice (7 to 8 weeks old) were infected via intraperitoneal injection with 8e4 CFU of MRSN 388634. At 2 and 6 h postinfection, 0.25 mg/kg colistin sulfate, 100 μg PPMO (~5 mg/kg), or the combination was administered via the i.p. route. Mice were euthanized at 24 h, and organ burden was determined. Numbers of CFU per gram of tissue of the liver (A) and spleen (B) are shown. (C) Morbidity was assessed immediately prior to euthanasia and scored as a maxima of 6 (moribund) and a nadir of 0. Mice that succumbed prior to euthanasia are depicted with the maxima score of 6. The data represent the means and standard errors of the means (SEM) of results from two replicate experiments (n = 4) (n = 8 per group total). n.s., not significant; *, P < 0.05; **, P < 0.01; ***, P < 0.001; ****, P < 0.0001 by Student’s t test, with the Mann-Whitney test used for morbidity.
Animal experiments were approved by the […] at UT Southwestern Medical Center (protocol number 2016-101626). The mouse model of septicemia with PPMO rescue of antibiotic activity was described previously ([10]).
(§1) Briefly, 7- to 8-week-old female BALB/c mice (Jackson Laboratory, Sacramento, CA, USA) were infected intraperitoneally (i.p.) with 8 × 10^4 CFU of E. coli (MRSN 388634) in DPBS with 5% mucin (M1778; Sigma-Aldrich). At 2 and 6 h postinfection, 0.25 mg/kg colistin sulfate, 100 µg PPMO, or the combination was administered i.p. in 100 µl DPBS. Morbidity was assessed at 24 h, immediately prior to euthanasia. Mice were scored from 0 to 6 as follows: 0 for the absence or 1 for the presence of a ruffled coat; 0 for a normal posture, 1 for a hunched posture, and 2 for a prostrate posture; and 0 for nondisturbed movement, 1 for slow movement, 2 for movement after prodding, and 3 for no movement. Mice that succumbed to infection prior to euthanasia were scored as the maxima, 6 (moribund). Spleen and liver were harvested and homogenized in 1 ml DPBS (Omni TH; Omni International, Kennesaw, GA), serially diluted, and plated on blood agar.

[2] = tested on: E. coli MRSN 388634; assay: Mouse septicemia model, survival; format: in vivo, BALB/c mice
Procedure: FIG 4 PPMOs combined with colistin protect mice from a lethal dose of mcr-1-positive E. coli. Female BALB/c mice (7 to 8 weeks old) were infected via intraperitoneal injection with 1e6 CFU of MRSN 388634. At 2 and 6 h postinfection 0.5 mg/kg colistin sulfate, 100 μg PPMO (~5 mg/kg), or the combination was administered via the i.p. route. Mice were monitored for morbidity, with an assessment scored at a maxima of 6 (moribund; dotted line [b]) and a nadir of 0. The data represent the means and SEM from two replicate experiments (n = 4) (n = 8 per group total). (A to C) Survival curve (A), morbidity scoring (B), and weight loss measurement (C) over the course of 5 days. ****, P < 0.0001 by the Mantel-Cox log-rank test.
as §1
Mice were infected and treated as described above except that the inoculum was increased to 1 × 10^6 CFU and the colistin dose was increased to 0.5 mg/kg. Mice were weighed, and morbidity was assessed every 6 h for the first 36 h and then every 12 h out to 120 h (5 days). Mice that reached the moribund state were euthanized.

Molecule	burden in the liver and morbidity at 24 h, colistin alone ([1]; BALB/c, 8 × 10^4 CFU i.p., colistin sulfate 0.25 mg/kg i.p. at 2 and 6 h, n = 8)	survival to the 5-day endpoint, combination with colistin ([2]; BALB/c, 1 × 10^6 CFU i.p., PPMO 100 μg (~5 mg/kg) + colistin sulfate 0.5 mg/kg i.p. at 2 and 6 h, n = 6/8) [%]	body weight course, combination with colistin ([2]; PPMO ~5 mg/kg + colistin sulfate 0.5 mg/kg, over 5 days)	morbidity course, combination with colistin ([2]; PPMO ~5 mg/kg + colistin sulfate 0.5 mg/kg, score 0 to 6)	effect on burden or morbidity at 24 h, PPMO alone ([1]; BALB/c, 8 × 10^4 CFU i.p., PPMO 100 μg (~5 mg/kg) i.p. at 2 and 6 h postinfection, n = 8)	decrease in the number of CFU, combination with colistin ([1]; PPMO ~5 mg/kg + colistin sulfate 0.25 mg/kg i.p. at 2 and 6 h, 24 h)	liver burden and morbidity, combination with colistin, compared to Ctrl PPMO and colistin ([1]; PPMO ~5 mg/kg + colistin sulfate 0.25 mg/kg i.p. at 2 and 6 h, 24 h, n = 8)	numbers of CFU in liver and spleen at 24 h, combination with colistin, compared to DPBS control ([1]; PPMO ~5 mg/kg + colistin sulfate 0.25 mg/kg i.p. at 2 and 6 h, n = 8)
CC[C@H](C)CCCCC(=O)N[C@@H](CCN)C(=O)N[C@H](C(=O)N[C@@H](CCN)C(=O)N[C@H]1CCNC(=O)[C@H]([C@@H](C)O)NC(=O)[C@H](CCN)NC(=O)[C@H](CCN)NC(=O)[C@H](CC(C)C)NC(=O)[C@@H](CC(C)C)NC(=O)[C@H](CCN)NC1=O)[C@@H](C)O [Colistin, colistin, reference compound] (X1-[Dab]T[Dab][Dab][Dab][dL]L[Dab][Dab]T; lactam 4-C (inferred); N-terminus assumed)	significant reduction							
TCAAAGAGTAC [Mcr1-0545, (RXR)4XB 3′-end-conjugated PPMO targeted to mcr-1 mRNA, positions −8 to +3; theone tested in mice]		75	continued to lose weight over the course of the experiment	increased initially, but the mice began to recover by 24 h	Neither the MCR-1 nor the Ctrl PPMO alone had an effect	~ 1 log	significantly less	significant reduction

— article PMC5676038, “MCR-1 Inhibition with Peptide-Conjugated Phosphorodiamidate Morpholino Oligomers Restores Sensitivity to Polymyxin in Escherichia coli” (mBio, 2017)
